Source: US8138194B2, “Fused bicyclic pyrimidine compounds as aurora kinase inhibitors” (National Health Research Institutes, priority 2008, dated 2012)
Where “and” joins values, the source holds several entries; their conditions need not be identical. Equal values may be shown once. Read-outs that look alike come from different tables or passages of the source.

Experiments:
HCT-116 cells = experiment: HCT-116 cell viability MTS assay; assay type: cell-based; details: Homo sapiens
Experimental: HCT-116 cell viability was examined by the MTS assay (Promega, Madison, Wis., USA). 2000 HCT-116 cells in 100 μL McCoy's 5a medium were seeded in each well of a 96-well plate. After 96-h incubation with a test compound, the cells were incubated with 20 μL of a MTS/PMS mixture (MTS/PMS ratio: 20: 1) for 2 h at 37° C. in a humidified incubator with 5% CO2 to allow viable cells to convert the tetrazolium salt (MTS) into formazan. The amount/concentration of formazan, which indicates the number of live cells, was determined by measuring the absorbance at 490 nm using a PerkinElmer Victor2 plate reader (PerkinElmer, Shelton, Cont., USA).

[1] = molecular target: T1, GST-tAurora A (123-401aa) fusion protein (Homo sapiens, UniProt O14965); experiment: Aurora Kinase A luminescent kinase assay; assay type: biochemical; details: IC50 (concentration of a test compound at which activity of 50% of Aurora A is inhibited)
T1 construct: GST-tAurora A (123-401aa) fusion protein; made in house; host or cells: Sf9 insect cells (baculovirus, pBacPAK8)
T1 sequence (O14965 123-401): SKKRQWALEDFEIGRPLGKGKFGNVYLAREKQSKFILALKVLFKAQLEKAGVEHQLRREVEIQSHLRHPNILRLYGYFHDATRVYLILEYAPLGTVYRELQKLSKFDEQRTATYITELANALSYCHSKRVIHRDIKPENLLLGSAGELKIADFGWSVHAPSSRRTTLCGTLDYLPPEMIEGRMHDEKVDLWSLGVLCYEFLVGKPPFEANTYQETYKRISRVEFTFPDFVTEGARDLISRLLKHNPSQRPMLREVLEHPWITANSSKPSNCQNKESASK
Experimental: The Aurora A catalytic domain with an N-terminal GST tag was constructed in pBacPAK8 plasmid and expressed in sf9 cells. […] To concentrate GST-tAurora A, buffer was replaced with Tris buffer (100 mM Tris (pH 7.5), 300 mM NaCl, 1 mM EDTA, 4 mM DTT) using Amicon ultra-15 (MWCO:30K, Millipore) to 2.4 mg/ml. After the addition of equal volume of glycerol and 0.04% Triton X-100, the proteins were stored aliquoted at −80° C.
Briefly, a test compound, enzyme, substrate-tetra(LRRWSLG), DTT and ATP were dissolved in Aur buffer (50 mM Tris-HCl pH 7.4, 10 mM NaCl, 10 mM MgCl2, and 100 μg/ml BSA) individually before the assay. […] 5 μM ATP (5 μl), 1 mM DTT (5 μl) and 0.1 mM tetra(LRRWSLG) peptide substrate (5 μl) were added into the reactions of test compounds and GST-tAurora A. The reactions were incubated at 37° C. for 90 min. 50 μl of Kinase-Glo Plus Reagent (V3771, Promega) was added into the reactions, followed by the incubation at 25° C. for 20 min.

[2] = read-out: IC50 (concentration of a test compound which causes 50% of the cell death), HCT-116, 96-h incubation, MTS
[3] = HCT-116, 96 h, read-out: IC50 (concentration of a test compound which causes 50% of the cell death)
[4] = HCT-116, 96 h, read-out: IC50 (concentration of a test compound which causes 50% of the cell death), HCT-116, 96-h incubation, MTS

| Structure (SMILES) | IC50 [1] | IC50 (HCT-116 cells; [2]) [nM] | IC50 (HCT-116 cells; [3]) [nM] | IC50 (HCT-116 cells; [4]) [nM] |
| --- | --- | --- | --- | --- |
| O=C(Nc1ccccc1)Nc1ccc(CCNc2ncnc3oc(-c4ccc(OCCCl)cc4)cc23)cc1 [Compound 235] | < 1000 nM and 45 to 400 nM | 100 to 900 | – | – |
| O=C(Nc1ccccc1)Nc1ccc(CCNc2ncnc3[nH]c(-c4ccccc4)c(-c4ccccc4)c23)cc1 [Compound 172] | 45 to 400 nM and < 1000 nM | 100 to 900 | – | – |
| O=C(Nc1ccc(F)cc1)Nc1ccc(CCNc2ncnc3oc(-c4ccccc4)c(-c4ccccc4)c23)cc1 [Compound 61] | 45 to 400 nM and < 1000 nM | 100 to 900 | – | – |
| O=C(Nc1ccccc1)Nc1ccc(CCNc2ncnc3oc(-c4ccccc4)c(C#CCO)c23)cc1 [Compound 202] | < 1000 nM and 45 to 400 nM | 100 to 900 | – | – |
| CC(=O)Nc1cccc(-c2c(-c3ccccc3)oc3ncnc(NCCc4ccc(NC(=O)Nc5ccccc5)cc4)c23)c1 [Compound 80] | 45 to 400 nM and < 1000 nM | 100 to 900 | – | – |
| O=C(NCCN1CCOCC1)Nc1ccc(CCNc2ncnc3oc(-c4ccccc4)c(Cl)c23)cc1 [Compound 218] | < 1000 nM and 45 to 400 nM | 100 to 900 | – | – |
| CCCCNC(=O)Nc1ccc(CCNc2ncnc3oc(-c4ccccc4)c(-c4ccccc4)c23)cc1 [Compound 222] | < 1000 nM and 45 to 400 nM | 100 to 900 | – | – |
| O=C(Nc1ccccc1)Nc1ncc(CCNc2ncnc3oc(-c4ccccc4)c(Cl)c23)s1 [Compound 256] | 45 to 400 nM and < 1000 nM | 100 to 900 | – | – |
| O=C(NCCCl)Nc1ccc(CCNc2ncnc3oc(-c4ccccc4)cc23)cc1 [Compound 215] | < 1000 nM | – | 100 to 900 | – |
| COc1ccc(-c2oc3ncnc(NCCc4ccc(NC(=O)Nc5ccccc5)cc4)c3c2-c2ccc(OC)cc2)cc1 [Compound 23] | 45 to 400 nM and < 1000 nM | 100 to 900 | – | – |
| O=C(Nc1ccccc1)Nc1ncc(CCNc2ncnc3oc(-c4ccccc4)c(-c4ccccc4)c23)s1 [Compound 171] | 45 to 400 nM and < 1000 nM | 100 to 900 | – | – |
| O=C(Nc1ccccc1)Nc1ccc(CCNc2ncnc3oc(-c4ccccc4)c(-c4cccc([N+](=O)[O-])c4)c23)cc1 [Compound 219] | < 1000 nM and 45 to 400 nM | 100 to 900 | – | – |
| O=C(NCCCl)Nc1ccc(CCNc2ncnc3oc(-c4ccccc4)c(Cl)c23)cc1 [Compound 217] | < 1000 nM and 45 to 400 nM | – | 100 to 900 | – |
| CC(=O)Nc1ccc(-c2c(-c3ccccc3)oc3ncnc(NCCc4ccc(NC(=O)Nc5ccccc5)cc4)c23)cc1 [Compound 58] | < 1000 nM | 100 to 900 | – | – |
| O=C(Nc1ccccc1)Nc1ncc(CCNc2ncnc3oc(-c4ccccc4)cc23)s1 [Compound 255] | < 1000 nM | 100 to 900 | – | – |
| COc1ccc(-c2oc3ncnc(NCCc4ccc(NC(=O)Nc5ccccc5)cc4)c3c2Cl)cc1 [Compound 244] | < 1000 nM and 45 to 400 nM | 100 to 900 | – | – |
| O=C(Nc1ccccc1)Nc1ccc(CCNc2ncnc3oc(-c4ccccc4)c(-c4ccc(CO)o4)c23)cc1 [Compound 250] | 45 to 400 nM and < 1000 nM | 100 to 900 | – | – |
| O=C(Nc1ccccc1)Nc1ccc(CCNc2ncnc3oc(-c4ccc(O)cc4)c(-c4ccc(O)cc4)c23)cc1 [Compound 24] | < 1000 nM | 100 to 900 | – | – |
| CN(C)Cc1ccccc1NC(=O)Nc1ccc(CCNc2ncnc3oc(-c4ccccc4)cc23)cc1 [Compound 211] | < 1000 nM and 45 to 400 nM | 100 to 900 | – | – |
| O=C(Nc1ccccc1)Nc1ccc(CCNc2ncnc3oc(-c4ccc(OCCCN5CCC(O)CC5)cc4)cc23)cc1 [Compound 240] | < 1000 nM and 45 to 400 nM | 100 to 900 | – | – |
| O=C(Nc1ccccc1)Nc1ccc(CCNc2ncnc3oc(-c4ccc(OCCCN5CCC[C@H]5CO)cc4)cc23)cc1 [Compound 241] | < 1000 nM and 45 to 400 nM | 100 to 900 | – | – |

Further lines, with some results ahead:

| IC50 [1] | Structure (SMILES) | IC50 (HCT-116 cells; [2]) [nM] | IC50 (HCT-116 cells; [3]) [nM] | IC50 (HCT-116 cells; [4]) [nM] |
| --- | --- | --- | --- | --- |
| 45 to 400 nM and < 1000 nM | O=C(Nc1ccc(CCNc2ncnc3oc(-c4ccccc4)c(-c4ccccc4)c23)cc1)NC1CCC1 [Compound 214] | 100 to 900 | – | – |
| < 1000 nM and 45 to 400 nM | COc1cccc(-c2cc3c(NCCc4ccc(NC(=O)Nc5ccccc5)cc4)ncnc3o2)c1 [Compound 221] | 100 to 900 | – | – |
| < 1000 nM and 45 to 400 nM | O=C(Nc1ccccc1)Nc1ccc(CCNc2ncnc3oc(-c4ccc(OCCN5CCC(CO)CC5)cc4)cc23)cc1 [Compound 236] | 100 to 900 | – | – |
| < 1000 nM | O=C(Nc1ccncc1)Nc1ccc(CCNc2ncnc3oc(-c4ccccc4)c(-c4ccccc4)c23)cc1 [Compound 148] | 100 to 900 | – | – |
| < 1000 nM | O=C(Nc1ccccc1)Nc1ccc(CCNc2ncnc3oc(-c4ccccc4)c(CCCCO)c23)cc1 [Compound 251] | 100 to 900 | – | – |
| < 1000 nM | O=C(Nc1ccccc1)Nc1ccc(CCNc2ncnc3sc4c(c23)CCCCC4)cc1 [Compound 248] | 100 to 900 | – | – |
| < 1000 nM | O=C(Nc1ccccc1)Nc1ccc(CCNc2ncnc3oc(-c4ccccc4)c(-c4ccc(O)cc4)c23)cc1 [Compound 60] | 100 to 900 | – | – |
| < 1000 nM and 45 to 400 nM | Cc1oc2ncnc(NCCc3ccc(NC(=O)Nc4ccccc4)cc3)c2c1C [Compound 220] | 100 to 900 | – | – |
| 45 to 400 nM and < 1000 nM | O=C(Nc1ccccc1)Nc1ccc(CCNc2ncnc3sc4c(c23)CCC4)cc1 [Compound 196] | 100 to 900 | – | – |
| 45 to 400 nM and < 1000 nM | CN(C)CCCOc1ccc(-c2cc3c(NCCc4ccc(NC(=O)Nc5ccccc5)cc4)ncnc3o2)cc1 [Compound 247] | – | – | 100 to 900 |
| 45 to 400 nM and < 1000 nM | O=C(Nc1ccc(CCNc2ncnc3oc(-c4ccccc4)c(-c4ccccc4)c23)cc1)Nc1cccc(F)c1 [Compound 14] | 100 to 900 | – | – |
| 45 to 400 nM and < 1000 nM | Cc1oc2ncnc(NCCc3cnc(NC(=O)Nc4ccccc4)s3)c2c1C [Compound 254] | 100 to 900 | – | – |
| 45 to 400 nM and < 1000 nM | O=C(Nc1ccc(CCNc2ncnc3oc(-c4ccccc4)c(-c4ccccc4)c23)cc1)Nc1cccnc1 [Compound 147] | 100 to 900 | – | – |
| 45 to 400 nM and < 1000 nM | O=C(Nc1ccccc1)Nc1ccc(CCNc2ncnc3oc(-c4ccccc4)c(C#CCCO)c23)cc1 [Compound 249] | 100 to 900 | – | – |
| 45 to 400 nM and < 1000 nM | O=C(Nc1ccc(CCNc2ncnc3oc(-c4ccccc4)c(-c4ccccc4)c23)cc1)Nc1ccccc1F [Compound 96] | 100 to 900 | – | – |
| 45 to 400 nM and < 1000 nM | O=C(Nc1ccccc1)Nc1ccc(CCNc2ncnc3oc(-c4ccccc4)cc23)cc1 [Compound 79] | 100 to 900 | – | – |
| < 1000 nM and 45 to 400 nM | CN(C)CCOc1cccc(-c2cc3c(NCCc4ccc(NC(=O)Nc5ccccc5)cc4)ncnc3o2)c1 [Compound 224] | – | – | 100 to 900 |
| < 1000 nM | CN(C)Cc1cccc(NC(=O)Nc2ccc(CCNc3ncnc4oc(-c5ccccc5)c(Cl)c34)cc2)c1 [Compound 252] | 100 to 900 | – | – |
| < 1000 nM and 45 to 400 nM | O=C(Nc1ccccc1)Nc1ccc(CCNc2ncnc3oc(-c4ccc(O)cc4)cc23)cc1 [Compound 205] | < 100 | – | – |
| 45 to 400 nM and < 1000 nM | O=C(Nc1ccccc1)Nc1ccc(CCNc2ncnc3sc4c(c23)CCCC4)cc1 [Compound 42, N-phenyl-N′-4-[2-(5,6,7,8-tetrahydrobenzo[4,5]thieno[2,3-d]pyrimidin-4-ylamino)ethyl]phenylurea] | 100 to 900 | – | – |
